Consider one sequence from article doi:10.1101/2025.08.13.670037v1 (bioRxiv, 2025).

No end group written: not given here.

The series in a line: Stability of peptide in human plasma. The format is in vitro ADME.

The amount remaining is the share of the starting amount still present when the sample was taken. Low values mean a greater loss, high ones greater stability. Take “PVLDLFRELLNELLEALKQKLKPDWLKAFYDKVAEKLKEAF [22A-P-18A]”: the “peptide lost, in sHDL particles” value (human plasma, 24h incubation) amounted to 15%. Under “human, plasma, SD”, this sequence registered a share remaining at 24 h, 0.25 mg/mL of 73.6 ± 6.3%.
